Laboratory results published in ChEMBL document CHEMBL4819115, “Discovery of potent and selective reversible Bruton's tyrosine kinase inhibitors” (Bioorg Med Chem, 2021).
Values after ≈ are worked out from the molar mass of the structure shown. Blank lines part the entries; values can stand above or below the compound they belong to.

Experiments:
physchem = conditions: FaSSIF
[1] = Intrinsic clearance in human microsomes; assay type: ADME, Microsome
[2] = Intrinsic clearance in mouse microsomes; assay type: ADME, Microsome
[3] = Intrinsic clearance in rat microsomes; assay type: ADME, Microsome
[4] = Stability of the compound in human plasma assessed as parent compound remaining after 4 hrs; assay type: ADME, cell-free; conditions: read-out: Stabilty
[5] = Stability of the compound in mouse plasma assessed as parent compound remaining after 4 hrs; assay type: ADME, cell-free; conditions: read-out: Stabilty
[6] = AUC(0 to 6 hrs) in rat at 10 mg/kg, po; assay type: ADME, organism-based; set-up: time < 6 hr, route oral, dose 10 mg/kg; conditions: in vivo
[7] = AUC(0 to 4 hrs) in rat at 0.2 mg/kg, iv; assay type: ADME, organism-based; set-up: time < 4 hr, route intravenous, dose 0.2 mg/kg; conditions: in vivo
[8] = Cmax in rat at 10 mg/kg, po; assay type: ADME, organism-based; set-up: route oral, dose 10 mg/kg; conditions: in vivo
[9] = Oral bioavailability in rat at 10 mg/kg; assay type: ADME, organism-based; conditions: in vivo
[10] = Half life in rat at 10 mg/kg, po; assay type: ADME, organism-based; conditions: in vivo
[11] = Clearance in rat at 0.2 mg/kg, iv; assay type: ADME, organism-based; conditions: in vivo
[12] = Volume of distribution at steady state in rat at 0.2 mg/kg, iv; assay type: ADME, organism-based; conditions: in vivo, read-out: Vdss
[13] = Kinetic solubility of the compound; assay type: physicochemical; conditions: read-out: Kinetic_solubility

Structure (SMILES): Cc1nn(C(C)C)c(C)c1-c1nc2nccc(-c3ccc4c(c3)CCCC[C@H]4NC(=O)c3nc(C(C)(C)C)no3)c2[nH]1
microsomal CLint [1]: 32 µL/min/mg | microsomal CLint [2]: 75 µL/min/mg | microsomal CLint [3]: 67 µL/min/mg | remaining at 4 h [4]: > 85% | remaining at 4 h [5]: > 85% | AUC [6]: 3030 ng·h/mL | AUC [7]: 79 ng·h/mL | Cmax [8]: 849 ng/mL | bioavailability [9]: 77% | half-life [10]: 1.93 h | CL [11]: 40.3 mL/min/kg | Vd [12]: 2.62 L/kg

Structure (SMILES): Cc1c(-c2nc3c(-c4ccc5c(c4)CCC[C@@H]5NC(=O)c4nc(C(C)(C)C)no4)ccnc3[nH]2)cnn1C(C)C
solubility (physchem): 28 µg/mL (≈ 52 µM)

Structure (SMILES): Cc1nn(C(C)C)c(C)c1-c1nc2c(-c3ccc4c(c3)CCC[C@H]4NC(=O)c3nc(C(C)(C)C)no3)ccnc2[nH]1
solubility (physchem): 56 µg/mL (≈ 101 µM)

Structure (SMILES): CC(C)n1cc(-c2nc3c(-c4ccc5c(c4)CCC[C@@H]5NC(=O)c4nc(C(C)(C)C)no4)ccnc3[nH]2)cn1
solubility (physchem): 25 µg/mL (≈ 47.7 µM)

Structure (SMILES): Cn1cc(-c2nc3c(-c4ccc(CNC(=O)c5nc(C(C)(C)C)no5)c(F)c4)ccnc3[nH]2)cn1
solubility kinetic [13]: 1.7 µM (≈ 0.807 µg/mL) | solubility (physchem): 2 µg/mL (≈ 4.21 µM)

Structure (SMILES): Cc1nn(C2CCOCC2)cc1-c1nc2c(-c3ccc4c(c3)CCC[C@@H]4NC(=O)c3nc(C(C)(C)C)no3)ccnc2[nH]1
solubility (physchem): 33 µg/mL (≈ 56.8 µM)

Other lines, results leading:

solubility (physchem): 7 µg/mL (≈ 12.1 µM)
Structure (SMILES): Cc1c(-c2nc3c(-c4ccc5c(c4)CCC[C@H]5NC(=O)c4nc(C(C)(C)C)no4)ccnc3[nH]2)cnn1C1CCOCC1

solubility (physchem): 31 µg/mL (≈ 51.1 µM)
Structure (SMILES): CN1CCN(c2ccc(Nc3cc(-c4cccc(-n5ccc6cc(C7CC7)cc(F)c6c5=O)c4CO)cn(C)c3=O)nc2)CC1

solubility (physchem): 190 µg/mL (≈ 383 µM)
Structure (SMILES): Cn1cc(-c2nc3c(-c4ccc5c(c4)CCC[C@@H]5NC(=O)c4nc(C(C)(C)C)no4)ccnc3[nH]2)cn1

solubility (physchem): 56 µg/mL (≈ 116 µM)
Structure (SMILES): Cn1cc(-c2nc3c(-c4ccc(C5(NC(=O)c6nc(C(C)(C)C)no6)CC5)cc4)ccnc3[nH]2)cn1
